Data on 8 molecules can be found in patent publication US7648824B2, “Method of sequencing DNA” (Qiagen GmbH, priority 2000, dated 2010).

Structures are written as SMILES. “Also recorded” adds a separate entry of the source.

Test [1] concerns the target T1, luciferase (Photinus pyralis, UniProt P08659).
T1 construct: purchased BioThema, Dalaro, Sweden
As to the kind of experiment: Model system simulating PPi-based sequencing: nucleotide plus ATP added to luciferase/apyrase/substrate mixture, light signal height. The class given is biochemical. The following applies: for luciferase activity (signal intensity, height of ascending curve): 50 additions of nucleotide + 2 μM ATP in 50 minutes, 100 ng luciferase, 50 mU apyrase, room temperature. As for the experimental part: (§1) In this Example a series of 5 experiments were carried out to examine the inhibitory effect of each of the 5 nucleotides (dATP, dATPαS, dCTP, dGTP and dTTP) on the enzymes apyrase and luciferase. A model system was used which simulated the effects of these enzymes in a PPi-based sequencing reaction. Each nucleotide was added to the luciferase/apyrase/substrate mixture, along with ATP (to provide a substrate for luciferase), and the effect of each nucleotide addition on the enzymes was monitored by observing the light signals generated from the luciferase reaction.
(§2) The reactions were performed at room temperature in a volume of 50 μl on an automated prototype Pyrosequencer instrument (kindly supplied by Pyrosequencing AB, Uppsala, Sweden). The reaction mixture contained: 50 mU apyrase (Sigma Chemical Co., USA), 100 ng purified luciferase (BioThema, Dalaro, Sweden), 0.1 M Tris-acetate (pH 7.75), 0.5 mM EDTA, 5 mM magnesium acetate, 0.1% bovine serum albumin, 1 mM dithiothreitol, 0.4 mg/ml polyvinylpyrrolidone (360 000), and 100 μg/ml D-luciferin (BioThema). An ATP concentration of 2 μM was added to different nucleotides (dATP, dATPαS, dCTP, dGTP and dTTP), as shown in FIGS. 1 to 5 to follow the activity of luciferase and apyrase. For investigation of the effect of Shrimp Alkaline Phosphatase (Amersham Pharmacia Biotech, Uppsala, Sweden), two units of this enzyme were added to the reaction mixture—see further below. In total, 50 additions of nucleotide and ATP mixture were performed in 50 minutes. The output of light resulting from nucleotide incorporation was detected by a CCD-camera. The data was obtained in Excel format.

Test [2] deals with T2, apyrase (Solanum tuberosum, UniProt P80595).
T2 construct: purchased Sigma Chemical Co., USA
T2 sequence (P80595 1-454): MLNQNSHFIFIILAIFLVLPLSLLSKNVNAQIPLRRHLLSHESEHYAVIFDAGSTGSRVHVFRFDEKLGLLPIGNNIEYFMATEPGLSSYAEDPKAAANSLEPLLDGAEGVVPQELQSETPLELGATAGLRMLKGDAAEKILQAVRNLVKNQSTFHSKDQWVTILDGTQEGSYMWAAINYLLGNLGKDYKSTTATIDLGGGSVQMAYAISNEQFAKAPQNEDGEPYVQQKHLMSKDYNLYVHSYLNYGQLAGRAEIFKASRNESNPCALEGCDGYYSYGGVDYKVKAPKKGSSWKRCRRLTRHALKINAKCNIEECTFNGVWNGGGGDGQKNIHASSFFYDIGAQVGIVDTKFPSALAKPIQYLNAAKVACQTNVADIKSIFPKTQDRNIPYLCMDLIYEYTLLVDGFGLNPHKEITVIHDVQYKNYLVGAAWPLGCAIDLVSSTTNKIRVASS
As to the kind of experiment: Model system simulating PPi-based sequencing: nucleotide plus ATP added to luciferase/apyrase/substrate mixture, slope of descending curve / signal width. Format: biochemical. The conditions noted are these: for apyrase activity (slope of descending curve, signal width): 50 additions of nucleotide + 2 μM ATP in 50 minutes, 100 ng luciferase, 50 mU apyrase, room temperature. As for the experimental part:
as §1, §2

Test [3] has as its system Enzyme mix (DNA polymerase, ATP-sulphurylase, apyrase and luciferase). As to the kind of experiment: Preincubation of Pyrosequencing reaction mixture with nucleotide, then PPi-based sequencing with ELIDA detection. The conditions noted are these: for effect of preincubation on the sequencing reaction: similar experiment, nucleotides from prototype PSQ 96 SNP Reagent kit, 2 pmol template, control 1×TE, results not shown; for inhibition of the sequencing reaction: preincubation with 5, 10 or 20 μl nucleotide for 10 minutes at room temperature without template, compared with 0 μl. Format: biochemical. As to the method: (§3) In this example, the inhibitory effect of dATPαS on a PPi-based sequencing reaction with ELIDA detection (known as Pyrosequencing) was investigated by preincubating the reaction mixture in the absence of template with varying amounts of the normal (i.e. racemic) dATPαS (containing both Rp and Sp isomers), or the pure Sp isomer of dATPαS. After preincubation, template was added and a normal “Pyrosequencing™”, reaction was carried out.
(§4) The “normal” dATPαS was taken from the PSQ 96 SNP Reagent kit supplied by Pyrosequencing AB (Uppsala, SE). The pure Rp and Sp isomers were purchased from Biolog Life Science (Bremen, Germany). The reaction mixture also included Enzyme mix (DNA polymerase, ATP-sulphurylase, apyrase and luciferase) and Substrate mix (luciferin and APS), from the PSQ 96 SNP Reagent kit supplied by Pyrosequencing AB. The template was an oligonucleotide (interactiva, Ulm, Germany) from which the following sequence could be read after annealing of a sequencing primer: […].
The pure isomer samples were diluted to the same concentration as the dATPαS in the PSQ 96 SNP Reagent kit. For preincubation, 0, 5, 10 or 20 μl of each A-sample (normal dATPαS or the Rp or Sp isomer) was added to a mixture containing 5 μl Enzyme mix, 5 μl Substrate mix in a total volume of 45 μl. The reaction was carried out in the 96 well plate delivered with the PSQ 96 SNP Reagent kit. The reaction was incubated at room temperature, in the dark for 10 minutes. After this, […] in 5 μl annealed oligonucleotide template was added to each well and the plate was transferred […] the PSQ 96 instrument, where a normal “Pyrosequencing™” reaction was carried out (omitting addition of Enzyme and Substrate mixes).
A similar experiment was also performed where the preincubation was carried out comparing “normal” dATPαS with dCTP, dGTP or dTTP, all from a prototype to the PSQ 96 SNP Reagent kit. As control, only 1×TE (dilution buffer for the dNTPs) was added. The template was the same as above, but 2 pmol were added to each well.

Test [4] concerns the target T1, luciferase. The following applies: literature report, Ford et al., 1998; cited from earlier work.
In test [5] the target is T2, apyrase. As to the kind of experiment: Preincubation of Pyrosequencing reaction mixture with nucleotide, signal width. The following applies: preincubation with 5, 10 or 20 μl nucleotide for 10 minutes, compared with 0 μl. The class given is biochemical. As for the experimental part: as §3, §4
(§5) The pure isomer samples were diluted to the same concentration as the dATPαS in the PSQ 96 SNP Reagent kit. For preincubation, 0, 5, 10 or 20 μl of each A-sample (normal dATPαS or the Rp or Sp isomer) was added to a mixture containing 5 μl Enzyme mix, 5 μl Substrate mix in a total volume of 45 μl. The reaction was carried out in the 96 well plate delivered with the PSQ 96 SNP Reagent kit. […]

The target in test [6] is T1, luciferase. Put plainly: Preincubation of Pyrosequencing reaction mixture with nucleotide, signal intensity. The class given is biochemical. The conditions noted are these: preincubation with 5, 10 or 20 μl nucleotide for 10 minutes, compared with 0 μl. As for the experimental part:
as §3, §4, §5

Where [7] appears, read: 0.7 mM dATPαS + 2 μM ATP, 50 cycles, 2 U alkaline phosphatase added.

T1 sequence (P08659 whole entry): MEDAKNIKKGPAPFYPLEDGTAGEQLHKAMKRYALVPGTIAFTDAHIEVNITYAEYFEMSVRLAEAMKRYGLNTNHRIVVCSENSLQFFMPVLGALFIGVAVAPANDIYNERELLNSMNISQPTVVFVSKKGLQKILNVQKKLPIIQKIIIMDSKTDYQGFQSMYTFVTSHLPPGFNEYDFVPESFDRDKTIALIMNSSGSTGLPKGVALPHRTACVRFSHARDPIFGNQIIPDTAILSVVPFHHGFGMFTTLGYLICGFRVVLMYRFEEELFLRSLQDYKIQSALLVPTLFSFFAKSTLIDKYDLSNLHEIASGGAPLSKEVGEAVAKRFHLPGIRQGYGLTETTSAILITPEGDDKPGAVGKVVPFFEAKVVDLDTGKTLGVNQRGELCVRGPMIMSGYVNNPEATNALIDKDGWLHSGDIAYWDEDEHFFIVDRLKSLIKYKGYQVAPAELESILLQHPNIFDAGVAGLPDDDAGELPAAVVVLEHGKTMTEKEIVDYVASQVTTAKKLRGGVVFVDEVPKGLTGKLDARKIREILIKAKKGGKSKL

In the case of `Nc1nc2c(ncn2[C@H]2C[C@H](O)[C@@H](COP(=O)(O)OP(=O)(O)OP(=O)(O)O)O2)c(=O)[nH]1` [dGTP, deoxyguanosine triphosphate], the “luciferase activity (signal intensity, height of ascending curve)” value on luciferase [1] was “do not inhibit luciferase or apyrase”. Moreover, the “apyrase activity (slope of descending curve, signal width)” value at apyrase [2] is reported as “do not inhibit luciferase or apyrase”. For the same molecule, the “effect of preincubation on the sequencing reaction” value (from here on “effect of preincubation”) in test [3] is reported as “no negative effect”.
Consider `Nc1ncnc2c1ncn2[C@H]1C[C@H](O)[C@@H](COP(=O)(O)O)O1` [dAMP], for which, on luciferase [4], the inhibition of luciferase entry was “inhibits luciferase”.
Consider `Nc1ncnc2c1ncn2[C@H]1C[C@H](O)[C@@H](COP(O)(=S)OP(=O)(O)OP(=O)(O)O)O1` (stereo partly drawn) [dATPαS, deoxyadenosine α-thiotriphosphate], for which the “luciferase activity (signal intensity) in the presence of alkaline phosphatase” value at luciferase [1] (setting [7]) is given as “no inhibition of luciferase”. Further, on luciferase [1] (0.7 mM nucleotide + 2 μM ATP, after 50 cycles, compared with dATP (FIG. 1)), the “decrease in signal intensity after 50 cycles, less than that obtained with dATP” value is given as 50%. In addition, the “luciferase activity (signal intensity, height of ascending curve)” value on luciferase [1] is listed as “relatively linear decrease in signal intensity”. Besides, on apyrase [2] (setting [7]), the “apyrase activity (signal width) in the presence of alkaline phosphatase” value is on record as “lack of apyrase inhibition”. For the same molecule, at apyrase [2], the “apyrase activity (slope of descending curve, signal width)” value is listed as “drastically inhibited in later cycles”. In addition, in test [3], the “inhibition of the sequencing reaction” value is “progressively severe inhibition” and the “effect of preincubation” value was “severe negative effect”. Moreover, on apyrase [5], the “apyrase inhibition (signal width, signal definition)” value is recorded as “apyrase inhibition is particularly occurring”. Besides, the “luciferase inhibition (signal intensity, peak height)” value at luciferase [6] is “Some loss of signal intensity”.
Turning to `Nc1ncnc2c1ncn2[C@H]1C[C@H](O)[C@@H](COP(O)(=S)OP(=O)(O)OP(=O)(O)O)O1` (single isomer, unassigned) [Rp isomer], in test [3], the “inhibition of the sequencing reaction” value is on record as “Even more pronounced inhibition; also recorded: severe effect on all enzymes involved in the ELIDA detection”. For the same molecule, the “apyrase inhibition (signal width, signal definition)” value at apyrase [5] is “increased signal width”. At luciferase [6], the “luciferase inhibition (signal intensity, peak height)” value is “signal intensity is decreased”.
For `Cc1cn([C@H]2C[C@H](O)[C@@H](COP(=O)(O)OP(=O)(O)OP(=O)(O)O)O2)c(=O)[nH]c1=O` [dTTP, deoxythymidine triphosphate], the “luciferase activity (signal intensity, height of ascending curve)” value at luciferase [1] is given as “do not inhibit luciferase or apyrase”. For the same molecule, the “apyrase activity (slope of descending curve, signal width)” value on apyrase [2] is “do not inhibit luciferase or apyrase”. Also, the “effect of preincubation” value in test [3] is listed as “no negative effect”.
Consider `Nc1ccn([C@H]2C[C@H](O)[C@@H](COP(=O)(O)OP(=O)(O)OP(=O)(O)O)O2)c(=O)n1` [dCTP, deoxycytidine triphosphate], for which, on luciferase [1], the “luciferase activity (signal intensity, height of ascending curve)” value was “do not inhibit luciferase or apyrase”. Also, the “apyrase activity (slope of descending curve, signal width)” value on apyrase [2] is “do not inhibit luciferase or apyrase”. Also, the “effect of preincubation” value in test [3] was “no negative effect”.
For the molecule `Nc1ncnc2c1ncn2[C@H]1C[C@H](O)[C@@H](COP(=O)(O)OP(=O)(O)OP(=O)(O)O)O1` [dATP, deoxyadenosine triphosphate], the “luciferase activity (signal intensity, height of ascending curve)” value at luciferase [1] is recorded as “relatively linear decrease in signal intensity”.
In the case of `Nc1ncnc2c1ncn2[C@H]1C[C@H](O)[C@@H](COP(O)(=S)OP(=O)(O)OP(=O)(O)O)O1` (single isomer, unassigned) [Sp isomer], the “inhibition of the sequencing reaction” value in test [3] was “significantly reduced”.
